These results are taken from patent US7988984B2, “Insect repellent and attractant and auto-thermostatic membrane vapor control delivery system” (Energy Related Devices, Inc., priority 2005, dated 2011).

For data set [1] the following is noted: highest dose (most concentrated DEET sold); cited from earlier work.
The subject of data set [2] is mosquitoes. In words: Mosquito behaviour at decoy band with a DEET-filled ampoule. The class given is in vivo. The note with it: only DEET used in ampoule of decoy band. The source says: Initially the scents are designed to attract the mosquitoes preferentially to the band 1. When the mosquito is nearing contact the DEET will interfere with the chemical sensors of the mosquito and they will use only infrared and visual cues. If she is close enough, within roughly three meters, she will be attracted to the dark pupil pattern 5 and infrared emissions on the band 1 and at close range land on the border area 3 of red or pink and the white area 4 of the decoy. If not close enough for visual cues she may then wander off with some dose of DEET to hamper her long-range ability to find prey. By landing on the decoy 3,4,5 the Mosquito will obtain a high concentration of DEET vapor disabling and interfering with her chemical sensors.
Chemicals such as citronella may confuse the mosquito's appetite. […] If the user moves or brushes the mosquito away this may be sufficient to put them far enough away from visual cues to attack again, reducing the chances that she will be able to find an authentic victim. The ampoules 7, 8 can be designed with a desired diffusion delivery rate of DEET and scents 10, 28 in sufficient volume to effectively deliver a steady chemical vapor for days.

The subject of data set [3] is mosquitoes. In words: Mosquitoes tracking and locating a human with a fresh coating of DEET on the skin. The class given is in vivo. The conditions noted are these: fresh coating of DEET mosquito repellent on skin.
For data set [4] the following is noted: applied on the skin; from the literature search; cited from earlier work.

Each structure is given as a SMILES string.

Consider `CCN(CC)C(=O)c1cccc(C)c1` [DEET, N,N-diethyl-3-methylbenzamide], for which, in data set [1], the “time DEET remains on the skin” value is reported as “roughly 8 hours”. The “mosquito behaviour toward the decoy” value in data set [2] is “repeatably attacking the decoy”. Moreover, the “ability of mosquitoes to track and locate a human” value in data set [3] was “still able to track and locate a human”. Besides, the “fraction of DEET absorbed through the skin” value in data set [4] was 6-15%.
